Values after ≈ are worked out from the molar mass of the structure shown. Like-named read-outs stand apart in the source and are kept apart here.
Experiments:
C. albicans (ATCC 10231) = assay: Broth microdilution assay, antifungal MIC/MFC; format: cell-based, Candida albicans; settings: for ratio (MFC/MIC): C. albicans (ATCC 10231); for MFC / MIC: Candida albicans
B. subtilis (ATCC 9372) = assay: Broth microdilution assay, MIC; format: cell-based; settings: Bacillus subtilis, ATCC9372, read-out: Minimum Inhibitory Concentration
S. aureus (ATCC 25923) = assay: Broth microdilution assay, MIC; format: cell-based; settings: Staphylococcus aureus, ATCC25923, read-out: Minimum Inhibitory Concentration
[1] = molecular target: T1, M. tuberculosis DHFR enzyme (Mycobacterium tuberculosis, UniProt P9WNX1); assay: biochemical
T1 sequence (P9WNX1 1-161): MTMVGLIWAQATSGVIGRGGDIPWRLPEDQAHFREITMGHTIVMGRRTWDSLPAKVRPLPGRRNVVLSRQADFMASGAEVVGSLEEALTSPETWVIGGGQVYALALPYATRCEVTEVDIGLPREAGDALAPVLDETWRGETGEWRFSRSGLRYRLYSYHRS

[2] = test system: M. tuberculosis (RCMB 010126); assay: Microplate alamar blue assay; format: cell-based, Mycobacterium tuberculosis; settings: MABA
E. coli (ATCC25922) = assay: Broth microdilution assay, MIC; format: cell-based; settings: Escherichia coli, ATCC25922, read-out: Minimum Inhibitory Concentration
[3] = test system: P. aeruginosa (ATCC 29853); assay: Broth microdilution assay, MIC/MBC; format: cell-based; settings: for ratio (MBC/MIC): P. aeruginosa (ATCC 29853); for bactericidal or bacteriostatic effect: MBC/MIC ≤ 4 = bactericidal; for MBC / MIC: Pseudomonas aeruginosa
[4] = ATCC10231, read-out: Minimum Inhibitory Concentration
[5] = Mycobacterium tuberculosis, RCMB010126, sensitive Mycobacterium tuberculosis (RCMB 010126)
[6] = sensitive Mycobacterium tuberculosis (RCMB 010126)
[7] = ATCC29853, read-out: Minimum Inhibitory Concentration

SMILES | ratio (MFC/MIC) (C. albicans (ATCC 10231)) | MFC (C. albicans (ATCC 10231); ATCC10231) | MIC (C. albicans (ATCC 10231); ATCC10231) | MIC (C. albicans (ATCC 10231); [4]) | MIC (B. subtilis (ATCC 9372)) | MIC (S. aureus (ATCC 25923)) | IC50 [1] | MIC [2, 5] | MIC [2, 6] | MIC (E. coli (ATCC25922)) | ratio (MBC/MIC) [3] | bactericidal or bacteriostatic effect ([3]; P. aeruginosa) | MBC ([3]; ATCC29853) | MIC ([3]; ATCC29853) | MIC [3, 7] | fungicidal or fungistatic behavior (C. albicans (ATCC 10231); C. albicans, MFC/MIC > 4 = fungistatic) | fold more efficient than amoxicillin ([3]; P. aeruginosa, from MICs)
COc1ccc(OC)c(C2CC(c3cccs3)=NN2C2=NC(=O)CS2)c1 (centres unmarked) [6b, 2-(4,5-Dihydro-5-(2,5-dimethoxyphenyl)-3-(thiophen-2-yl)pyrazol-1-yl)thiazol-4(5H)-one] | 4 | 15.6 µg/mL (≈ 40.3 µM) | 3.9 µg/mL (≈ 10.1 µM) | 3.9 µg/mL (≈ 10.1 µM) | 125 µg/mL (≈ 323 µM) | 62.5 µg/mL (≈ 161 µM) | 5.7 ± 0.28 µM | 0.12 to 1.95 µg/mL (≈ 0.31 to 5.03 µM) | 0.12 µg/mL (≈ 0.31 µM) | 125 µg/mL (≈ 323 µM) | 4 | bactericidal | 15.6 µg/mL (≈ 40.3 µM) | 3.9 µg/mL (≈ 10.1 µM) | 3.9 µg/mL (≈ 10.1 µM) |  | 
Brc1ccc(-c2csc(N3N=C(c4cccs4)CC3c3cccs3)n2)cc1 (centres unmarked) [4c, 1-(4-(4-Bromophenyl)thiazol-2-yl)-4,5-dihydro-3,5-di(thiophen-2-yl)-1H-pyrazole] | 8 | 31.2 µg/mL (≈ 66.1 µM) | 3.9 µg/mL (≈ 8.25 µM) | 3.9 µg/mL (≈ 8.25 µM) | 125 µg/mL (≈ 265 µM) | 62.5 µg/mL (≈ 132 µM) | 4.21 ± 0.13 µM | 0.12 to 1.95 µg/mL (≈ 0.254 to 4.13 µM) | 0.12 µg/mL (≈ 0.254 µM) | > 500 µg/mL | 4 | bactericidal | 125 µg/mL (≈ 265 µM) | 31.2 µg/mL (≈ 66.1 µM) | 31.2 µg/mL (≈ 66.1 µM) | fungistatic | ~16 fold
